One experiment has as its target T1, human CB1 receptor (Homo sapiens, UniProt P21554).
T1 construct: expressed in transfected cells; host or cells: human embryonic kidney (HEK) cells, Semliki Forest Virus system, membrane preparations
Put plainly: CB1 receptor affinity ([3H]-CP-55,940 displacement, HEK cell membranes). The following applies: displacement of radioligand [3H]-CP-55,940. The class given is binding. Put shortly:
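HEK cell membranes transiently expressing human CB1 (Semliki Forest Virus) incubated with [3H]-CP-55,940 and compound at 10 μM. Bound and free ligand separated by glass-fibre filtration, then scintillation counting. Reported as % inhibition of radioligand binding.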

The target of another experiment is T2, human CB2 receptor (Homo sapiens, UniProt P34972).
T2 construct: expressed in transfected cells; host or cells: human embryonic kidney (HEK) cells, Semliki Forest Virus system, membrane preparations
As to the kind of experiment: CB2 receptor affinity ([3H]-CP-55,940 displacement, HEK cell membranes). The class given is binding. The following applies: displacement of radioligand [3H]-CP-55,940. The gist of the method: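 Membranes from HEK cells transiently expressing human CB2 via Semliki Forest Virus, incubated with [3H]-CP-55,940 ± compound; bound ligand separated by glass-fiber filtration and counted by scintillation. Reported as % inhibition of radioligand binding at 10 μM compound.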

In the next experiment the test system is ABCA1 protein. Put plainly: Detection of upregulation of ABCA1 protein in cells (ApoA-I binding, high content image analysis). Conditions: THP-1 macrophage cells; for % increase of ABCA1 at 3 μM: 24 hrs with compound. The class given is cell-based. The gist of the method:
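THP-1 cells differentiated with 100 nM PMA for 68 hrs, loaded with 25 μg/ml acetylated LDL for 24 hours, then exposed to compound (0.5% DMSO) for 24 hrs. Surface ABCA1 measured by binding of AlexaFluor 647-labeled human ApoA-I (20 nM, 2 h, 37 °C) with confocal high-content imaging; EC50 from one-site dose-response fit.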

We go through eight compounds from patent US8410107B2, “N-pyridin-3-yl or N-pyrazin-2-yl carboxamides” (Hoffmann-La Roche Inc., priority 2010, dated 2013).

Some results are limits rather than exact numbers.

T1 sequence (P21554 whole entry): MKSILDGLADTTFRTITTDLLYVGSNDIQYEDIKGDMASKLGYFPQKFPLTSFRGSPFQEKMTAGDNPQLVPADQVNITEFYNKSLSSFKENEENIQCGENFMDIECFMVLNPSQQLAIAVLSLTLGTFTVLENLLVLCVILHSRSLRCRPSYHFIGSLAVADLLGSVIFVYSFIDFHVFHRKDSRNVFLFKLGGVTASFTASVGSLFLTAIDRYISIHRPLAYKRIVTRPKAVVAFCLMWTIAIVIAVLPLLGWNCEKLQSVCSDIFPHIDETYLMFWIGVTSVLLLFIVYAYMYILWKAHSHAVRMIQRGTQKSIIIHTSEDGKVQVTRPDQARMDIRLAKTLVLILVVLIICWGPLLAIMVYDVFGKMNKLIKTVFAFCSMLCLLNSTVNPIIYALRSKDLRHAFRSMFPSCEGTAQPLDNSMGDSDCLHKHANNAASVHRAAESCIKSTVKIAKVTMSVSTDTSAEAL
T2 sequence (P34972 whole entry): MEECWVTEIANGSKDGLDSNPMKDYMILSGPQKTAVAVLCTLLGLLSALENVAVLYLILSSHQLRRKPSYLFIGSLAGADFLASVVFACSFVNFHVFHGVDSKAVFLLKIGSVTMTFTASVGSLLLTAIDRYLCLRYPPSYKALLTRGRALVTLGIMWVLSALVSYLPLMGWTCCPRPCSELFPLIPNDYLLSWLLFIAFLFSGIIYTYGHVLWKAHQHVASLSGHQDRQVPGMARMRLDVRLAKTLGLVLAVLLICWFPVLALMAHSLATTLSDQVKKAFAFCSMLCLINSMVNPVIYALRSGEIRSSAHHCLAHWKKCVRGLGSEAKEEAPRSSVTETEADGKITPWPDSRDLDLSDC

With `Cc1ocnc1C(=O)Nc1cnc(OC2CCC2)c(-c2ccc(Cl)cc2)c1` [Example 82, 5-Methyl-oxazole-4-carboxylic acid[5-(4-chloro-phenyl)-6-cyclobutoxy-pyridin-3-yl]-amide], the values for the inhibition at 10 µM on human CB1 receptor and at human CB2 receptor were 29% and 37%, respectively. The “% increase of ABCA1 at 3 μM” value with ABCA1 protein is above 45% @ 3 μM.
On the same counts, the results for `Cc1cncc(C(=O)Nc2cnc(OC3CCC3)c(-c3ccc(Cl)cc3)c2)c1` [Example 83, N-[5-(4-Chloro-phenyl)-6-cyclobutoxy-pyridin-3-yl]-5-methyl-nicotinamide] are 27%, -5% and above 45% @ 3 μM.
As for `CNC(=O)c1ccc(C(=O)Nc2cnc(OCC(F)(F)F)c(-c3ccc(Cl)cc3)c2)cn1` [Example 84, N5-(5-(4-chlorophenyl)-6-(2,2,2-trifluoroethoxy)pyridin-3-yl)-N2-methylpyridine-2,5-dicarboxamide], the inhibition at 10 µM on human CB1 receptor was 23%; at human CB2 receptor, 3%. Further, the “% increase of ABCA1 at 3 μM” value with ABCA1 protein was above 45% @ 3 μM.
On to `O=C(Nc1cnc(OCC(F)(F)F)c(-c2ccc(Cl)cc2)c1)c1cncc(Br)c1` [Example 85, 5-bromo-N-(5-(4-chlorophenyl)-6-(2,2,2-trifluoroethoxy)pyridin-3-yl)nicotinamide], for which the inhibition at 10 µM on human CB1 receptor was found to be 38%; at human CB2 receptor, 5%. Further, the “% increase of ABCA1 at 3 μM” value in the experiment on ABCA1 protein is reported as above 45% @ 3 μM.
As for `COC(C)C(=O)Nc1cnc(OCC(F)(F)F)c(-c2ccc(Cl)cc2)c1` (stereo not drawn) [Example 86, N-(5-(4-chlorophenyl)-6-(2,2,2-trifluoroethoxy)pyridin-3-yl)-2-methoxy-propanamide], the inhibition at 10 µM on human CB1 receptor came to 48%; at human CB2 receptor, 5%. In addition, the “% increase of ABCA1 at 3 μM” value with ABCA1 protein is above 45% @ 3 μM.
`CNC(=O)c1cncc(C(=O)Nc2cnc(OCC(F)(F)F)c(-c3ccc(Cl)cc3)c2)c1` [Example 87, N3-(5-(4-chlorophenyl)-6-(2,2,2-trifluoroethoxy)pyridin-3-yl)-N5-methylpyridine-3,5-dicarboxamide]: the inhibition at 10 µM at human CB1 receptor was 19%; at human CB2 receptor it was -15%. For the same compound, the “% increase of ABCA1 at 3 μM” value in the experiment on ABCA1 protein is recorded as above 45% @ 3 μM.
The corresponding values for `CO[C@H](C)C(=O)Nc1cnc(OCC(F)(F)F)c(-c2ccc(Cl)cc2)c1` [Example 88, (+)-N-(5-(4-chlorophenyl)-6-(2,2,2-trifluoroethoxy)pyridin-3-yl)-2-methoxypropanamide] are 41%, 16% and above 45% @ 3 μM.
For the compound `CO/N=C(\C)C(=O)Nc1cnc(OCC(F)(F)F)c(-c2ccc(Cl)cc2)c1` [Example 89, (E)-N-(5-(4-chlorophenyl)-6-(2,2,2-trifluoroethoxy)pyridin-3-yl)-2-(methoxyimino)propanamide], the inhibition at 10 µM was 35% on human CB1 receptor and 5% on human CB2 receptor. This compound also returned an EC50 in the experiment on ABCA1 protein (ABCA1 protein increasing efficacy) of 3.31 µM.
